Data on 21 molecules can be found in US20050209278A1, “Piperidinyl- and piperazinyl-sulfonylmethyl hydroxamic acids and their use as protease inhibitors” (priority 2002, published 2005).

What all share (format): biochemical
Assay [1] deals with T1, MMP-2 (Homo sapiens, UniProt P08253).
T1 construct: made in house; host or cells: MMP-2-transfected p2AHT2 cells
T1 sequence (P08253 110-660): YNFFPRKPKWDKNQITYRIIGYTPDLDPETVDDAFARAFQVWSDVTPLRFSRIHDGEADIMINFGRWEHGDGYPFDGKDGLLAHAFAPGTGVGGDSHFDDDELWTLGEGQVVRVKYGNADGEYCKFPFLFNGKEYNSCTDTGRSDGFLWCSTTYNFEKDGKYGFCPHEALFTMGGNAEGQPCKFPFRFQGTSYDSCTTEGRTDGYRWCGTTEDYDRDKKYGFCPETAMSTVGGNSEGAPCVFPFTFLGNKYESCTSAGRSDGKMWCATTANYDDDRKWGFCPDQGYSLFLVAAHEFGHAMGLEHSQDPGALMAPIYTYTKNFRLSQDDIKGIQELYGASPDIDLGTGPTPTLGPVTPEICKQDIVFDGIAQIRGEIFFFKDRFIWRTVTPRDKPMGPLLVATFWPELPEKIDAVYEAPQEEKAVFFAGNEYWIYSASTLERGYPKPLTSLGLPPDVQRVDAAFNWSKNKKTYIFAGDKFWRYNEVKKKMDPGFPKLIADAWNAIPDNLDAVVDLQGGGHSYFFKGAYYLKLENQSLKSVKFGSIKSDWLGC
Briefly: MMP-2 inhibition (in vitro Ki).

For assay [2], the target named is T2, MMP-13 (Homo sapiens, UniProt P45452).
T2 construct: made in house; host or cells: baculovirus / insect cells
Description: MMP-13 inhibition (in vitro Ki).

Assay [3] concerns the target T3, MMP-9 (Homo sapiens, UniProt P14780).
T3 construct: made in house; host or cells: MMP-9-transfected HT1080 cells (spent media)
Briefly: MMP-9 inhibition (in vitro Ki).

The target of assay [4] is T4, MMP-1 (Homo sapiens, UniProt P03956).
T4 construct: made in house; host or cells: MMP-1-transfected HT-1080 cells (spent media)
T4 sequence (P03956 100-469): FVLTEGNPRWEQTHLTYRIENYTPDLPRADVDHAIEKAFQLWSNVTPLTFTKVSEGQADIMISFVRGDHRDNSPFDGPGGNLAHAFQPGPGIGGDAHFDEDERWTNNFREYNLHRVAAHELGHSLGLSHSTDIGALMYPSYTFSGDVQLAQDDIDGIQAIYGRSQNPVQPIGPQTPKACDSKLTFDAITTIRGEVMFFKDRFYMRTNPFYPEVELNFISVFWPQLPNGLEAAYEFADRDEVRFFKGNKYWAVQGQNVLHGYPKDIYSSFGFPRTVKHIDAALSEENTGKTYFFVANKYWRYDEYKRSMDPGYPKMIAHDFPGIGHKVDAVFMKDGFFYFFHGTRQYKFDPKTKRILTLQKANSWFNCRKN
Briefly: MMP-1 inhibition (in vitro Ki).

For assay [5], the target named is T5, MMP-14 (Homo sapiens, UniProt P50281).
T5 construct: The catalytic domain enzyme was expressed in E. coli inclusion bodies, solubilized in urea; made in house
Briefly: MMP-14 inhibition (in vitro Ki).

Setting [6] is: Table 9, read-out: MMP-2 Ki (IC-50).
Where [7] appears, read: Table 9, read-out: MMP-13 Ki (IC-50).
[8] abbreviates: Table 9, read-out: MMP-9 Ki (IC-50).
Where [9] appears, read: Table 9, read-out: MMP-1 Ki (IC-50).
[10] abbreviates: Table 9, read-out: MMP-14 Ki (IC-50).

For orientation: Ki means a measure of affinity in units of concentration, obtained from inhibition or displacement.

Where a name gives a salt, the structure may show the parent alone. Read-outs that look alike come from different tables or passages of the source.

T3 sequence (P14780 107-707 limits assumed): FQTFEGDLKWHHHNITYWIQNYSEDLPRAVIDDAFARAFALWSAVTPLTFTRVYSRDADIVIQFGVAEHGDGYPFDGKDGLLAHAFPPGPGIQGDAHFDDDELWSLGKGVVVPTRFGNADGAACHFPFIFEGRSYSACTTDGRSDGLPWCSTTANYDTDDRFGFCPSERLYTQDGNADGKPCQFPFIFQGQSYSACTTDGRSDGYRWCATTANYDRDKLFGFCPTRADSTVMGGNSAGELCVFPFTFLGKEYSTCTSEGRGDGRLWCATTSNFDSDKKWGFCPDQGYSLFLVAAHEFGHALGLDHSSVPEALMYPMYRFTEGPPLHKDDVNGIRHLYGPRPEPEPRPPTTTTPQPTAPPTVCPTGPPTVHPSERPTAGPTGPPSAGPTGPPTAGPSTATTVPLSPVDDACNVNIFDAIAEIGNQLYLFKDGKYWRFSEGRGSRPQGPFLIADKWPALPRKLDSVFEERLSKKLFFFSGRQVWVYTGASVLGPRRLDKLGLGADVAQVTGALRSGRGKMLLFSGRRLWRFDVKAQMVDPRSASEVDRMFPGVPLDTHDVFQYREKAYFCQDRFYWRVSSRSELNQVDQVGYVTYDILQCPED

Regarding `CC(F)(F)CCc1ccc(C2CCN(S(=O)(=O)C3(C(=O)NO)CCOCC3)CC2)nc1` [Example A63, 4-({4-[5-(3,3-difluorobutyl)pyridin-2-yl]piperidin-1-yl}sulfonyl)-N-hydroxytetrahydro-2H-pyran-4-carboxamide Hydrochloride], the Ki in assay [1] (Table 8, read-out: MMP-2 Ki) came out at 0.5 nM; in assay [2] (Table 8, read-out: MMP-13 Ki), 0.39 nM; in assay [3] (Table 8, read-out: MMP-9 Ki) it was 0.22 nM; in assay [4] (Table 8, read-out: MMP-1 Ki), 4370 nM; in assay [5] (Table 8, read-out: MMP-14 Ki), 1840 nM.

As to `O=C(NO)C1(S(=O)(=O)N2CCC(CCCCc3nc(-c4ccc(OC(F)(F)F)cc4)no3)CC2)CCOCC1` [Example A64, N-hydroxy-4-{[4-(4-{3-[4-(trifluoromethoxy)phenyl]-1,2,4-oxadiazol-5-yl}butyl)piperidin-1-yl]sulfonyl}tetrahydro-2H-pyran-4-carboxamide], the Ki was 63.8 nM in assay [1] (Table 8, read-out: MMP-2 Ki); 0.51 nM in assay [2] (Table 8, read-out: MMP-13 Ki); 273 nM in assay [3] (Table 8, read-out: MMP-9 Ki); 8880 nM in assay [4] (Table 8, read-out: MMP-1 Ki); over 10000 nM in assay [5] (Table 8, read-out: MMP-14 Ki).

For `O=C(NO)C1(S(=O)(=O)N2CCC(c3cnc(CCC(F)(F)C(F)(F)F)cn3)CC2)CCOCC1` [Example A65, N-hydroxy-4-({4-[5-(3,3,4,4,4-pentafluorobutyl)pyrazin-2-yl]piperidin-1-yl}sulfonyl)tetrahydro-2H-pyran-4-carboxamide], the inhibitory constant (Ki) was 2.15 nM in assay [1] (Table 8, read-out: MMP-2 Ki); 0.47 nM in assay [2] (Table 8, read-out: MMP-13 Ki); 0.19 nM in assay [3] (Table 8, read-out: MMP-9 Ki); over 10000 nM in assay [4] (Table 8, read-out: MMP-1 Ki); 3870 nM in assay [5] (Table 8, read-out: MMP-14 Ki).

Consider `COCCC(C(=O)NO)S(=O)(=O)N1CCC(c2ccc(CCC(F)(F)C(F)(F)F)cc2)CC1` (stereo not drawn) [Example A66, N-hydroxy-4-methoxy-2-({4-[4-(3,3,4,4,4-pentafluorobutyl)phenyl]piperidin-1-yl}sulfonyl)butanamide], for which the Ki was 2.15 nM in assay [1] (Table 8, read-out: MMP-2 Ki); 1.28 nM in assay [2] (Table 8, read-out: MMP-13 Ki); 1.15 nM in assay [3] (Table 8, read-out: MMP-9 Ki); over 10000 nM in assay [4] (Table 8, read-out: MMP-1 Ki); 9640 nM in assay [5] (Table 8, read-out: MMP-14 Ki).

With `O=C(NO)C1(S(=O)(=O)N2CCC(c3cnc(OCCC4CC4)cn3)CC2)CCOCC1` [Example A67, 4-({4-[5-(2-cyclopropylethoxy)pyrazin-2-yl]piperidin-1-yl}sulfonyl)-N-hydroxytetrahydro-2H-pyran-4-carboxamide], the Ki in assay [1] (Table 8, read-out: MMP-2 Ki) came to 0.66 nM; in assay [2] (Table 8, read-out: MMP-13 Ki), 0.22 nM; in assay [3] (Table 8, read-out: MMP-9 Ki), 0.07 nM; in assay [4] (Table 8, read-out: MMP-1 Ki) it was 4450 nM; in assay [5] (Table 8, read-out: MMP-14 Ki), 1350 nM.

As to `O=C(NO)C1(S(=O)(=O)N2CCC(c3cnc(CCC(F)(F)F)cn3)CC2)CCOCC1` [Example A72], the Ki in assay [1] (setting [6]) is 3.8 nM; in assay [2] (setting [7]), 2 nM; in assay [3] (setting [8]), 1.4 nM; in assay [4] (setting [9]), over 10000 nM; in assay [5] (setting [10]) it was over 10000 nM.

As for `CC1(C)O[C@H]2C[C@@](C(=O)NO)(S(=O)(=O)N3CCC(c4ccc(CCC(F)(F)C(F)(F)F)cn4)CC3)C[C@H]2O1` [Example A73], the Ki stood at 0.22 nM in assay [1] (setting [6]); 0.09 nM in assay [2] (setting [7]); 0.16 nM in assay [3] (setting [8]); 716 nM in assay [4] (setting [9]); 140 nM in assay [5] (setting [10]).

In the case of `O=C(CCCCC1CCN(S(=O)(=O)C2(C(=O)NO)CCOCC2)CC1)N1CCc2ccccc2C1` [Example A74], the inhibition constant (Ki) in assay [1] (setting [6]) amounted to 21.8 nM; in assay [2] (setting [7]) it was 0.18 nM; in assay [3] (setting [8]), 65.8 nM; in assay [4] (setting [9]), 512 nM; in assay [5] (setting [10]), 7960 nM.

As to `O=C(/C=C/C=C/C1CCN(S(=O)(=O)C2(C(=O)NO)CCOCC2)CC1)N1CCc2ccccc2C1` [Example A75], the inhibition constant (Ki) in assay [1] (setting [6]) was 228 nM; in assay [2] (setting [7]), 0.41 nM; in assay [3] (setting [8]) it was 501 nM; in assay [4] (setting [9]) it was 6150 nM; in assay [5] (setting [10]) it was over 10000 nM.

`O=C(/C=C/C=C/C1CCN(S(=O)(=O)C2(C(=O)NO)CCOCC2)CC1)N1CCN(c2ccccc2)CC1` [Example A76]: the Ki in assay [1] (setting [6]) is 356 nM; in assay [2] (setting [7]) it was 6.79 nM; in assay [3] (setting [8]), 1780 nM; in assay [4] (setting [9]), over 10000 nM; in assay [5] (setting [10]), over 10000 nM.

On to `CC(C)CN(C)C(=O)/C=C/C=C/C1CCN(S(=O)(=O)C2(C(=O)NO)CCOCC2)CC1` [Example A77], for which the Ki in assay [1] (setting [6]) was 1100 nM; in assay [2] (setting [7]) it was 6.79 nM; in assay [3] (setting [8]), 5910 nM; in assay [4] (setting [9]) it was 6200 nM; in assay [5] (setting [10]) it was over 10000 nM.

As for `O=C(/C=C/C=C/C1CCN(S(=O)(=O)C2(C(=O)NO)CCOCC2)CC1)N1CCCCC1` [Example A78], the Ki in assay [1] (setting [6]) is 172 nM; in assay [2] (setting [7]), 0.52 nM; in assay [3] (setting [8]) it was 428 nM; in assay [4] (setting [9]), 2420 nM; in assay [5] (setting [10]), over 10000 nM.

With `CN(C(=O)/C=C/C=C/C1CCN(S(=O)(=O)C2(C(=O)NO)CCOCC2)CC1)C1CCCCC1` [Example A79], the inhibition constant Ki in assay [1] (setting [6]) is 2450 nM; in assay [2] (setting [7]), 5.94 nM; in assay [3] (setting [8]) it was over 10000 nM; in assay [4] (setting [9]), over 10000 nM; in assay [5] (setting [10]), over 10000 nM.

Regarding `O=C(/C=C/C=C/C1CCN(S(=O)(=O)C2(C(=O)NO)CCOCC2)CC1)N1CCc2ccccc21` [Example A80], the Ki was 239 nM in assay [1] (setting [6]); 0.389 nM in assay [2] (setting [7]); 1890 nM in assay [3] (setting [8]); 5450 nM in assay [4] (setting [9]); over 10000 nM in assay [5] (setting [10]).

`O=C(/C=C/C=C/C1CCN(S(=O)(=O)C2(C(=O)NO)CCOCC2)CC1)N1C[C@H]2CCCC[C@H]2C1` [Example A81]: the Ki in assay [1] (setting [6]) was 213 nM; in assay [2] (setting [7]), 0.92 nM; in assay [3] (setting [8]), 274 nM; in assay [4] (setting [9]), 4440 nM; in assay [5] (setting [10]) it was over 10000 nM.

As to `O=C(/C=C/C=C/C1CCN(S(=O)(=O)C2(C(=O)NO)CCOCC2)CC1)N1Cc2ccccc2C1` [Example A82], the Ki in assay [1] (setting [6]) is 1080 nM; in assay [2] (setting [7]), 0.901 nM; in assay [3] (setting [8]), 8280 nM; in assay [4] (setting [9]), over 10000 nM; in assay [5] (setting [10]), over 10000 nM.

Turning to `C#CCN(C)C(=O)CCCCC1CCN(S(=O)(=O)C2(C(=O)NO)CCOCC2)CC1` [Example A83], the Ki in assay [1] (setting [6]) was 60 nM; in assay [2] (setting [7]) it was 1.58 nM; in assay [3] (setting [8]), 382 nM; in assay [4] (setting [9]), 277 nM; in assay [5] (setting [10]) it was over 10000 nM.

Turning to `O=C(NO)C(CC1CC1)(CC1CC1)S(=O)(=O)N1CCC(c2ccc(CCC(F)(F)F)cn2)CC1` [Example A84], the inhibition constant (Ki) was found to be 2.88 nM in assay [1] (setting [6]); 1.82 nM in assay [2] (setting [7]); 0.738 nM in assay [3] (setting [8]); 9770 nM in assay [4] (setting [9]); 5390 nM in assay [5] (setting [10]).

As to `O=C(CCCCC1CCN(S(=O)(=O)C2(C(=O)NO)CCOCC2)CC1)N1CCOCC1` [Example A85], the inhibition constant Ki was 82.3 nM in assay [1] (setting [6]); 3 nM in assay [2] (setting [7]); 553 nM in assay [3] (setting [8]); 3420 nM in assay [4] (setting [9]); over 10000 nM in assay [5] (setting [10]).

Take `CNC(=O)CCCCC1CCN(S(=O)(=O)C2(C(=O)NO)CCOCC2)CC1` [Example A86]: the inhibition constant Ki was 23.8 nM in assay [1] (setting [6]); 8.19 nM in assay [2] (setting [7]); 307 nM in assay [3] (setting [8]); 516 nM in assay [4] (setting [9]); 7540 nM in assay [5] (setting [10]).

Regarding `O=C(CCCCC1CCN(S(=O)(=O)C2(C(=O)NO)CCOCC2)CC1)N1Cc2ccccc2C1` [Example A87], the Ki was 17.2 nM in assay [1] (setting [6]); 0.01 nM in assay [2] (setting [7]); 107 nM in assay [3] (setting [8]); 927 nM in assay [4] (setting [9]); over 10000 nM in assay [5] (setting [10]).
